For one test, the target named is C-RAF (Homo sapiens, UniProt P04049). As to the kind of experiment: HotSpot kinase assay (RBC), C-RAF. Conditions: for IC50: IC50 C-RAF, 10 µM ATP, 10-dose singlicate IC50 mode.
In another test the test system is MDA-MB-468. Put plainly: cells. The settings on record: Homo sapiens. As to the method: (§1) The anticancer screening of target compounds over a full panel of 60 human cancer cell lines was carried out using Sulforhodamine B (SRB) assay at the National Cancer Institute (NCI), Bethesda, Maryland, USA, employing the standard protocol.
The subject of another test is PC-3. As to the kind of experiment: cells. The settings on record: Homo sapiens. As to the method:
as §1

A further test concerns MDA-MB-231/ATCC. Put plainly: cells. Conditions: Homo sapiens. As to the method:
as §1

The subject of another test is SW-620. Put plainly: NCI-60 five-dose SRB assay. The settings on record: Homo sapiens; SW-620, Colon cancer, five-dose test. The class given is cell-based. The procedure, abridged: (§2)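 Following the NCI standard screening protocol, the full panel of 60 human cancer cell lines was assessed by sulforhodamine B assay at the Institute.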
Background: Sulforhodamine B stains cellular protein and so reports cell mass.

The next test concerns HS 578T. Put plainly: NCI-60 five-dose SRB assay. The settings on record: Homo sapiens, Breast cancer, five-dose test. The class given is cell-based. Summed up: as §2
Another test deals with HOP-62. As to the kind of experiment: NCI-60 five-dose SRB assay. In kind it is cell-based. The settings on record: Homo sapiens; HOP-62, NSCL cancer, five-dose test. Summed up: as §2
For another test, the system named is MOLT-4. As to the kind of experiment: NCI-60 five-dose SRB assay. The class given is cell-based. Conditions: Homo sapiens; MOLT-4, Leukemia, five-dose test. The procedure, abridged:
as §2

The next test relates to CCRF-CEM. Put plainly: NCI-60 five-dose SRB assay. In kind it is cell-based. Conditions: Homo sapiens, Leukemia, five-dose test. The procedure, abridged: as §2
For another test, the system named is NCI-H226. As to the kind of experiment: NCI-60 five-dose SRB assay. The class given is cell-based. The settings on record: Homo sapiens; NCI-H226, NSCL cancer, five-dose test. The procedure, abridged: as §2
The test system of the next test is HL-60(TB). Put plainly: NCI-60 five-dose SRB assay. The class given is cell-based. The settings on record: Homo sapiens, Leukemia, five-dose test. Summed up:
as §2

The test system of a further test is SR. As to the kind of experiment: NCI-60 five-dose SRB assay. The class given is cell-based. The settings on record: Homo sapiens, Leukemia, five-dose test. Summed up:
as §2

A further test deals with 786-0. Put plainly: NCI-60 five-dose SRB assay. In kind it is cell-based. The settings on record: Homo sapiens; 786-0, Renal cancer, five-dose test. Summed up: as §2
The test system of another test is UO-31. Put plainly: NCI-60 five-dose SRB assay. The class given is cell-based. The settings on record: Homo sapiens; UO-31, Renal cancer, five-dose test. The procedure, abridged: as §2
For a further test, the system named is HOP-92. As to the kind of experiment: NCI-60 five-dose SRB assay. The class given is cell-based. The settings on record: Homo sapiens; HOP-92, NSCL cancer, five-dose test. Summed up: as §2
The next test relates to NCI/ADR-RES. As to the kind of experiment: NCI-60 five-dose SRB assay. In kind it is cell-based. The settings on record: Homo sapiens, Ovarian cancer, five-dose test. The procedure, abridged: as §2
For the next test, the system named is M14. Put plainly: NCI-60 five-dose SRB assay. In kind it is cell-based. The settings on record: Homo sapiens; M14, Melanoma, five-dose test. The procedure, abridged:
as §2

In another test the test system is KM12. Put plainly: NCI-60 five-dose SRB assay. The class given is cell-based. The settings on record: Homo sapiens; KM12, Colon cancer, five-dose test. The procedure, abridged:
as §2

The next test deals with CAKI-1. Put plainly: NCI-60 five-dose SRB assay. The class given is cell-based. The settings on record: Homo sapiens; CAKI-1, Renal cancer, five-dose test. The procedure, abridged:
as §2

The next test addresses T1, B-RAF^V600E (Homo sapiens, UniProt P15056, V600E).
T1 construct: purchased Reaction Biology Corporation (RBC), Kinase HotSpot service
Put plainly: HotSpot kinase assay (RBC), B-RAF^V600E. Conditions: for IC50: 10 µM ATP, 10-dose singlicate IC50 mode. The class given is biochemical.

In test [1] the test system is NCI-60 human tumor cell lines. Put plainly: NCI-60 five-dose testing, ranges over panel or subpanel. In kind it is cell-based. Conditions: Homo sapiens, range over lines. The protocol: as §1
Test [2] has as its system NCI-60 human cancer cell lines. Put plainly: NCI-60 single dose (10 µM) testing. The class given is cell-based. The settings on record: single dose 10 µM. As to the method:
Encouraged by the promising results in the cell-free assay, the antiproliferative activity of all final compounds was evaluated by the National Cancer Institute (NCI) in a single dose of 10 µM over a library of 60 human cancer cell lines representing nine cancer types; leukemia, non-small cell lung (NSCL), colon, central nervous system (CNS), melanoma, ovarian, renal, prostate, and breast cancer.

Structures are written as SMILES.

Chain of C-RAF (P04049 whole entry): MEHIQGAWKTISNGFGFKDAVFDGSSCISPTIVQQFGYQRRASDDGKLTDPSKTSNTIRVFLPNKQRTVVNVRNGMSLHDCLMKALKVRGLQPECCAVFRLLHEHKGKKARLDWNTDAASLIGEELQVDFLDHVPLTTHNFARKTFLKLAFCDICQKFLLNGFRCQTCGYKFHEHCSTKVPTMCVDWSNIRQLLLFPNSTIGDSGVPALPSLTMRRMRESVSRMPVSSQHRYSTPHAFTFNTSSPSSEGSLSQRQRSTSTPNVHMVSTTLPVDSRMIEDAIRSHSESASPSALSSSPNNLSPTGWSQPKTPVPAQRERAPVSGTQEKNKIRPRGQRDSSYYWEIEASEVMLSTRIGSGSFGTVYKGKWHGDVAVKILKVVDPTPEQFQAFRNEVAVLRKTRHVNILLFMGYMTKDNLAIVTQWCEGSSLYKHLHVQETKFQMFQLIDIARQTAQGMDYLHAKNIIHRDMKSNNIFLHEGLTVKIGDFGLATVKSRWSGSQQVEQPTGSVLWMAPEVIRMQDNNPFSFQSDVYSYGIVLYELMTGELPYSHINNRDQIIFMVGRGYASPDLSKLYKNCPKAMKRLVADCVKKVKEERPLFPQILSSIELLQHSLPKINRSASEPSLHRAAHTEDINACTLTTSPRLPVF
T1 sequence (P15056 whole entry V600E): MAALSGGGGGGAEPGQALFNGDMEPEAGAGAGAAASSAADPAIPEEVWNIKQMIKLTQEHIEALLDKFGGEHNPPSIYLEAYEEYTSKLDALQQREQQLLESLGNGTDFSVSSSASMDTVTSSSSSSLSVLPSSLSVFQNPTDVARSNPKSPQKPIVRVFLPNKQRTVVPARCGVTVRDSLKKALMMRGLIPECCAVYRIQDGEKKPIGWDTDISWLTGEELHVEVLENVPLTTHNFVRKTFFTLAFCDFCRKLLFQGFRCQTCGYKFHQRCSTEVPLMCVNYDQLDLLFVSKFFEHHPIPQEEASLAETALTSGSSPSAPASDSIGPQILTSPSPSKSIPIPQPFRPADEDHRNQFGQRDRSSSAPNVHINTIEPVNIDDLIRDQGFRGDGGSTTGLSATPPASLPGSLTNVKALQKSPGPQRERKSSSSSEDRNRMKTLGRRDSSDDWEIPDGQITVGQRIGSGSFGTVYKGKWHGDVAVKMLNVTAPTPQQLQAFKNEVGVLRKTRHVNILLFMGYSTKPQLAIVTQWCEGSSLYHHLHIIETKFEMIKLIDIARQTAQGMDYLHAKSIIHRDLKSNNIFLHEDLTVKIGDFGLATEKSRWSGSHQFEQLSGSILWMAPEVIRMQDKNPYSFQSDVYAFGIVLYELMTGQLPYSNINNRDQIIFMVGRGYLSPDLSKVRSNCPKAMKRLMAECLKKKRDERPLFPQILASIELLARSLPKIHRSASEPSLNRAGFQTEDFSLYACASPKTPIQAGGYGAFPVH
Source text for C-RAF: Reaction Biology Corporation (RBC) Kinase HotSpotSM service was utilized for cell-free biochemical kinase evaluation of the target compounds according to the reported assay protocol [46].

Turning to `COc1cccc2nc(Nc3cccc(NC(=O)c4ccc(CN5CCN(C)CC5)c(C(F)(F)F)c4)c3)ccc12` [Compound 14a, 4-((4-methylpiperazin-1-yl)methyl)-N-(3-((5-methoxyquinolin-2-yl)amino)phenyl)-3-(trifluoromethyl)benzamide], the half-maximal inhibitory concentration (IC50) – broadly, the concentration that inhibits the measured activity by half – came to 151 ± 2.35 nM against C-RAF and 498 ± 35.8 nM against B-RAF^V600E. For the same compound, the GI50 (commonly the concentration at which growth is held to half of that of the control) turned out to be 1920 nM in the test with MDA-MB-468; 1700 nM in the test with PC-3; 1770 nM with MDA-MB-231/ATCC; 1730 nM in the test on SW-620; 1840 nM in the test on HS 578T; 1560 nM with HOP-62. For the same compound, the 50% growth inhibitory concentration (GI50) was found to be 1450 nM in the test with MOLT-4; 2100 nM in the test on CCRF-CEM; 4630 nM with NCI-H226; 1220 nM in the test on HL-60(TB); 1850 nM with SR; 1760 nM in the test with 786-0. The GI50 with UO-31 came out at 1640 nM; in the test with HOP-92, 1500 nM; in the test on NCI/ADR-RES it was 2280 nM; with M14, 1760 nM; in the test on KM12, 2130 nM; in the test on CAKI-1 it was 1810 nM.

Take `COc1cccc2nc(Nc3cccc(NC(=O)c4ccc(CN5CCCN(C)CC5)c(C(F)(F)F)c4)c3)ccc12` [Compound 14b, N-(3-((5-methoxyquinolin-2-yl)amino)phenyl)-4-((4-methyl-1,4-diazepan-1-yl)methyl)-3-(trifluoromethyl)benzamide]: the results for the concentration for half-maximal inhibition (IC50) against C-RAF and on B-RAF^V600E were 192 ± 0.6 nM and 355 ± 10.8 nM, respectively. For the same compound, the GI50 came to 1560 nM with MDA-MB-468; 1540 nM in the test on PC-3; 1830 nM in the test on MDA-MB-231/ATCC; 1750 nM in the test with SW-620; 2460 nM with HS 578T; 1760 nM in the test on HOP-62. The 50% growth inhibitory concentration (GI50) was 1240 nM in the test with MOLT-4; 1620 nM in the test with CCRF-CEM; 1940 nM with NCI-H226; 1650 nM with HL-60(TB); 1720 nM in the test on 786-0; 1740 nM in the test with UO-31. Further, the GI50 is 1720 nM with NCI/ADR-RES, 1810 nM in the test with M14, 2490 nM with KM12 and 1720 nM in the test with CAKI-1.

For the compound `CCN1CCN(Cc2ccc(C(=O)Nc3cccc(Nc4ccc5c(OC)cccc5n4)c3)cc2C(F)(F)F)CC1` [Compound 14c, 4-((4-ethylpiperazin-1-yl)methyl)-N-(3-((5-methoxyquinolin-2-yl)amino)phenyl)-3-(trifluoromethyl)benzamide], the IC50 against C-RAF came out at 182 ± 15.2 nM; against B-RAF^V600E, 619 ± 2.7 nM. Besides, the GI50 with MDA-MB-468 amounted to 1600 nM; in the test on PC-3 it was 2140 nM; in the test on MDA-MB-231/ATCC, 1540 nM; with SW-620, 1450 nM; in the test on HS 578T, 1960 nM; in the test with HOP-62, 3670 nM. The 50% growth inhibitory concentration (GI50) in the test on MOLT-4 was 1230 nM; in the test on CCRF-CEM, 1970 nM; in the test on NCI-H226, 5530 nM; in the test on HL-60(TB), 1570 nM; in the test with SR, 1870 nM; in the test with 786-0 it was 1410 nM. In addition, the GI50 in the test on UO-31 turned out to be 2330 nM; in the test on HOP-92, 1580 nM; in the test with NCI/ADR-RES it was 2280 nM; with M14, 1470 nM; in the test with KM12 it was 2200 nM; in the test with CAKI-1, 1460 nM.

Consider `COc1cccc2nc(Nc3ccc(F)c(NC(=O)c4ccc(CN5CCN(C)CC5)c(C(F)(F)F)c4)c3)ccc12` [Compound 15a, N-(2-fluoro-5-((5-methoxyquinolin-2-yl)amino)phenyl)-4-((4-methylpiperazin-1-yl)methyl)-3-(trifluoromethyl)benzamide], for which the IC50 against C-RAF was determined as 161 ± 1.57 nM; against B-RAF^V600E, 314 ± 22.9 nM. The concentration for 50% growth inhibition (GI50) in [1] (all cancer cell lines) was 3610 to 18800 nM; in test [1] (melanoma cell lines), 11700 to 16300 nM; with MDA-MB-468 it was 4790 nM; in the test on PC-3 it was 12000 nM; with MDA-MB-231/ATCC, 12100 nM; with SW-620, 16900 nM. Also, the 50% growth inhibitory concentration (GI50) is 14100 nM with HS 578T; 14500 nM with HOP-62; 4100 nM in the test with MOLT-4; 9710 nM in the test on CCRF-CEM; 11100 nM in the test on NCI-H226; 6520 nM with HL-60(TB). Moreover, the GI50 in the test with SR was 9830 nM; with 786-0, 12500 nM; in the test with UO-31, 12600 nM; with HOP-92, 6640 nM; with M14 it was 13100 nM; with KM12, 15400 nM. The compound further came in with a concentration for 50% growth inhibition (GI50) in the test with CAKI-1 of 11500 nM.

For `COc1ccc2nc(Nc3cccc(NC(=O)c4ccc(CN5CCN(C)CC5)c(C(F)(F)F)c4)c3)ccc2c1` [Compound 16a, N-(3-((6-methoxyquinolin-2-yl)amino)phenyl)-4-((4-methylpiperazin-1-yl)methyl)-3-(trifluoromethyl)benzamide], the IC50 against C-RAF came out at 103 ± 2.65 nM; at B-RAF^V600E it was 193 ± 7.6 nM. The “better kinase inhibition activity compared to 14a, C-RAF” value at C-RAF (ratio of IC50 versus 14a) was 1.5 fold. Further, the concentration for 50% growth inhibition (GI50) was 1560 nM with MDA-MB-468; 2900 nM in the test with PC-3; 1840 nM with MDA-MB-231/ATCC; 5890 nM with SW-620; 4140 nM with HS 578T; 6360 nM with HOP-62. Besides, the GI50 in the test with MOLT-4 worked out at 1630 nM; in the test with CCRF-CEM it was 2150 nM; in the test on NCI-H226, 4600 nM; in the test on HL-60(TB), 5460 nM; in the test with SR, 1310 nM; in the test on 786-0, 5000 nM. The GI50 with UO-31 came to 5680 nM; in the test on HOP-92, 1360 nM; in the test on M14, 3630 nM; in the test with KM12, 4050 nM; in the test with CAKI-1, 4900 nM. At B-RAF^V600E (ratio of IC50 versus 14a), the “better kinase inhibition activity compared to 14a, B-RAF^V600E” value was 2.6 fold.

Regarding `CN1CCCN(Cc2ccc(C(=O)Nc3cccc(Nc4ccc5cc(O)ccc5n4)c3)cc2C(F)(F)F)CC1` [Compound 18b, N-(3-((6-hydroxyquinolin-2-yl)amino)phenyl)-4-((4-methyl-1,4-diazepan-1-yl)methyl)-3-(trifluoromethyl)benzamide], the IC50 against C-RAF was found to be 161 ± 30.1 nM; against B-RAF^V600E, 227 ± 3.55 nM. Further, the GI50 in test [1] (NSCL cell lines) is 3390 to 17800 nM; in test [1] (colon cancer cell lines) it was 2090 to 18500 nM; in test [1] (melanoma cell lines) it was 10400 to 17200 nM; in the test with MDA-MB-468, 8880 nM; in the test on PC-3, 13100 nM; with MDA-MB-231/ATCC it was 13900 nM. Also, the GI50 came out at 14500 nM in the test with SW-620; 14800 nM in the test with HS 578T; 17800 nM with HOP-62; 2050 nM with MOLT-4; 4940 nM with CCRF-CEM; 13800 nM in the test with NCI-H226. For the same compound, the GI50 in the test on HL-60(TB) is 11900 nM; in the test on SR it was 1890 nM; in the test with 786-0, 16000 nM; in the test on UO-31, 15200 nM; with HOP-92 it was 10400 nM; in the test on M14, 12700 nM. For the same compound, the GI50 with KM12 and in the test on CAKI-1 was 14100 nM in each case. The “effect on cell growth” value in test [2] (LOX IMVI) is “lethal effect”. Also, the growth percent entry in test [2] (melanoma SK-MEL-29, SK-MEL-5, and UACC-62) was “under −90%”.

(Values after paper PMC9963398, “Discovery of New Quinolone-Based Diarylamides as Potent B-RAF^V600E/C-RAF Kinase Inhibitors Endowed with Promising In Vitro Anticancer Activity” (International Journal of Molecular Sciences, 2023).)
